# Results reported in US5494932A, “Sulfonic stilbene derivatives in the treatment of viral disease” (Merrell Dow Pharmaceuticals Inc., priority 1991, dated 1996).
# Values joined by “and” are separate entries in the source; they are usually repeats but may differ in a detail not shown here. Equal entries are not always repeated. Where two headings read alike, the source gives them in different places.
# Columns and labels:
# [1] = tested on: virus-induced cell fusion (gp120-CD4 dependent); assay: Cell fusion after pretreatment of uninfected C8166 cells, washing and mixing with chronically infected H9 cells; format: cell-based, HIV-1; human H9 and C8166 cells; conditions: 100 μg/ml; overnight pretreatment, washed; 6 hour observation
# Procedure: In the next experiments, CD4+ C8166 cells were pretreated overnight with either DIDS (100 μg/ml), SITS (100 μg/ml) or drug-free medium. Unabsorbed compounds were removed by repeated washings and chronically infected H9 cells were then added. […] Thus, cell washing prior to mixing with the H9 cells oblated the protective effect observed above (FIG. 1, Panel E) when 500,000 MW dextran sulfate was continually present in the assay.
# Pretreatment of CD4+ C8166 cells with DIDS blocks fusion with chronically infected H9 cells. In this experiment, C8166 cells were pretreated overight with various stilbene disulfonic acids or drug-free medium (fusion control). The cells were washed, incubated with chronically infected H9 cells and syncytia were photographed at 6 hours post-mixing. Pretreatment conditions were as follows: […]: 100 μg/ml SITS; FIG. 2B: drug-free medium; and FIG. 2C: 100 μg/ml DIDS.
# In pretreatment experiments, CD4^+ C8166 cells were maintained in serum-free medium (RPMI 1640 plus human transferrin 50 μg/ml, bovine insulin 20 μg/ml, bovine serum albumin 2 mg/ml) and were exposed to compound by overnight incubation. Treated cells were washed twice in fresh serum-free medium and then cocultured with chronically infected H9 cells in serum-free medium. Otherwise, cell numbers, assay conditions and scoring of syncytia were as described above.
# Protocol: C8166 cells were pretreated for 2.5 hours with either DIDS, SITS or H2 DIDS (at 500 and 250 μg/ml). The cells were then washed three times and mixed with H9 cells chronically infected with HIV-1. Cell fusion was quantified after 4 and 24 hours.
# [2] = tested on: HIV-1 strain GB8 in JM cells; assay: Acute HIV-1 (GB8) infection of JM cells: syncytial counts and p24 antigen; format: cell-based, HIV-1 (human T cell line JM); conditions: for Mean Syncytial Counts: at day 4 p.i.
# From the text: When evaluated in the human T cell line JM acutely infected with the GB8 virus, DIDS, H2 DIDS and SITS (Table I) suppressed virus-induced multinucleated giant cell formation (syncytia). […] We also examined the antiviral properties of these compounds in a second host-cell/virus system, i.e., the highly CD4+ C8166 cells infected with the Haitian strain of HIV-1, RF.
# The cell lines used were the semi-mature human lymphoblastoid leukemia T cell line JM, the human T-lymphoblastoid C8166 cell line, the human cutaneous T cell lymphoma line H9 and, the human T cell transformed line MT-4. Stocks of HIV-1 strains RF and GB8 (kindly provided by Dr. Graham Farrar, Center for Applied Microbiological Research, Porton Dawn, England) were prepared from chronically infected H9 cells and acutely infected JM cells, respectively. Virus stocks consisted of cell-free growth medium (RPMI 1640 plus 10% fetal calf serum) containing freshly shed virus. Virus titres were determined by a standard plaque reduction assay.
# Virus stocks (strains RF or GB8) were diluted into growth medium containing various concentrations of DIDS, H2 DIDS or SITS. The required number of cells were then immediately added and the virus allowed to absorb for 2 hours at 37° C. to give a multiplicity of infection (MOI) of 0.001 infectious units/cell. The virus-infected cells were pelleted, washed three times in phosphate buffered saline (PBS), and resuspended in fresh growth medium containing the appropriate concentrations of stilbene disulfonic acids. Cells were then distributed into 24-well culture plates (Falcon) and assayed as described below for virus infection. Alternatively, cells were first infected with HIV-1 (strains RF or GB8) for 2 hours at 37° C. at the above MOI. After extensive washing, cells were replated into fresh growth medium containing various concentrations of stilbene disulfonic acids. In the above experiments, syncytia were scored between 2 and 4 days postinfection (p.i.) in triplicate using an Olympus CK2 inverted microscope. The culture fluids were recovered between 3 and 5 days p.i., clarified by low speed centrifugation (2,000 rpm) for 5 minutes and the level of HIV-1 p24 core antigen in the supernatants was determined by p24 antigen ELISA (Coulter). The concentrations of stilbene disulfonic acids giving 50% inhibition of HIV-1 growth (IC50) were determined from the dose-response curves by linear regression analysis.
# (§1) Protocol: JM cells were infected with HIV-1 to give a multiplicity of infection of 0.001. Virus adsorption was for 2 hours at room temperature. The cells were washed and distributed into wells containing different concentrations of test compounds and incubated. After 2 days the cells were observed and syncytia were counted. The cell-free supernatant fluids were harvested at 4 and 6 days post infection and assayed for levels of p24 viral core antigen and after 6 days the supernatants were also titrated to determine levels of infectivity.
# [3] = tested on: HIV-1; assay: Back titration of cell-free supernatants (infectivity) on fresh uninfected JM cells; format: cell-based, HIV-1 (human T cell line JM)
# Procedure: as §1
# *Syncytia-forming unit; cellfree supernatants from virus infected cells
# having received the indicated concentration of compounds were incubated
# with fresh uninfected JM cells and syncytia were scored to determine the
# number of infectious units/ml.
# supernatants from virusinfected control cells not having received drug
# [4] = JM cells acutely infected with GB8
smiles,measurement,setting,value
"CC(=O)Nc1ccc(C=Cc2ccc(N=C=S)cc2S(=O)(=O)O)c(S(=O)(=O)O)c1 [SITS, 4-acetamido-4'-isothiocyanatostilbene-2,2'-disulfonic acid]",syncytia / fusion after pretreatment,[1],failed to block syncytia
same,Mean Syncytial Counts 2 Days p.i.,[2]; 3 μg/ml,93
same,Mean Syncytial Counts,[2]; 6 μM,93
same,Mean Syncytial Counts 2 Days p.i.,[2]; 6 μg/ml,72
same,Mean Syncytial Counts,[2]; 12 μM,72
same,Mean Syncytial Counts 2 Days p.i.,[2]; 12.5 μg/ml,63
same,p24 4 days p.i.,[2]; 12.5 μg/ml,185000 pg/mL
same,p24 6 days p.i.,[2]; 12.5 μg/ml,1.51 × 10^6 pg/m.
same,Mean Syncytial Counts,[2]; 25 μM,63
same,Mean Syncytial Counts 2 Days p.i.,[2]; 25 μg/ml,63
same,p24 4 days p.i.,[2]; 25 μg/ml,153000 pg/mL
same,p24 6 days p.i.,[2]; 25 μg/ml,1.26 × 10^6 pg/m.
same,Mean Syncytial Counts,[2]; 50 μM,63
same,Mean Syncytial Counts 2 Days p.i.,[2]; 50 μg/ml,15
same,p24 4 days p.i.,[2]; 50 μg/ml,62500 pg/mL
same,p24 6 days p.i.,[2]; 50 μg/ml,2.45 × 10^5 pg/m.
same,Mean Syncytial Counts,[2]; 100 μM,15
same,Mean Syncytial Counts 2 Days p.i.,[2]; 100 μg/ml,0
same,p24 4 days p.i.,[2]; 100 μg/ml,1140 pg/mL
same,p24 6 days p.i.,[2]; 100 μg/ml,2.2 × 10^4 pg/m.
same,Mean Syncytial Counts,[2]; 200 μM,0
same,activity at 25 µg/mL,"[2]; Human immunodeficiency virus 1, 96 h, read-out: p24 4 days p.i., % Control",100%
same,activity at 12.5 µg/mL,"[2]; Human immunodeficiency virus 1, 96 h, 12.5 μg/ml, read-out: p24 4 days p.i., % Control",100%
same,activity at 50 µg/mL,"[2]; Human immunodeficiency virus 1, 96 h, 50 μg/ml, read-out: p24 4 days p.i., % Control",85%
same,activity at 100 µg/mL,"[2]; Human immunodeficiency virus 1, 96 h, 100 μg/ml, read-out: p24 4 days p.i., % Control",1.6%
same,activity at 200 µM,"[2]; Human immunodeficiency virus 1, 144 h, read-out: P24 Antigen % Virus Control",1.6%
same,activity at 12.5 µg/mL,"[2]; Human immunodeficiency virus 1, 144 h, 12.5 μg/ml, read-out: p24 6 days p.i., % Control",69%
same,activity at 25 µg/mL,"[2]; Human immunodeficiency virus 1, 144 h, 25 μg/ml, read-out: p24 6 days p.i., % Control",58%
same,activity at 50 µg/mL,"[2]; Human immunodeficiency virus 1, 144 h, 50 µg/mL, GB8 in JM cells, day 6 p.i., read-out: P24 Antigen % Virus Control",100%
same,activity at 50 µg/mL,"[2]; Human immunodeficiency virus 1, 144 h, 50 μg/ml, read-out: p24 6 days p.i., % Control",11.2%
same,activity at 100 µg/mL,"[2]; Human immunodeficiency virus 1, 144 h, 100 µg/mL, GB8 in JM cells, day 6 p.i., read-out: P24 Antigen % Virus Control",85%
same,activity at 100 µg/mL,"[2]; Human immunodeficiency virus 1, 144 h, 100 μg/ml, read-out: p24 6 days p.i., % Control",1%
same,inhibition of p24 viral core antigen,[2]; [4],dose-dependent inhibition
same,virus-induced multinucleated giant cell formation (syncytia),[2]; [4],suppressed
same,order of antiviral potency,"[2]; in all three host cell/virus systems (JM/GB8, C8166/RF, MT-4/RF)",DIDS>H2 DIDS>>SITS
same,Back titration of cell-free supernatants at 6 days p.i.,[3]; 25 μg/ml,1.9 × 10^3 SFUs/ml and 2.5 × 10^3 SFUs/ml
same,Back titration of cell-free supernatants at 6 days p.i.,[3]; 100 μg/ml,< 10^1 SFUs/ml
same,viral infectivity in the cell-free supernatants,[3]; data not shown,absence of viral infectivity
